Test results as given in ChEMBL document CHEMBL3390848, “Affinity selection and sequence-activity relationships of HIV-1 membrane fusion inhibitors directed at the drug-resistant variants” (Medchemcomm, 2010).
Residues, ends and D or L forms follow the SMILES beside them.

Assays:
[1] = test system: Human immunodeficiency virus 1; assay: Antiviral activity against HIV1 NL4-3 harboring gp41 D36G mutant infected in human HeLa cells expressing CD4-LTR-beta-gal assessed as inhibition of viral replication after 48 hrs by MAGI assay; assay type: functional, organism-based
[2] = test system: Human immunodeficiency virus 1; assay: Binding affinity to HIV1 His-tagged N-terminal heptad repeat of envelope glycoprotein gp41 assessed as recovery of N54-drug complex after 2 hrs by LC-MS analysis; parameters: concentration or dose not given beside the values
[3] = test system: Human immunodeficiency virus 1; assay: Thermal stability of HIV1 envelope glycoprotein gp41 His-tagged N-terminal heptad repeat N54-drug complex assessed as thermal unfolding transition state by measuring molar ellipticity at 4 to 90 degC by circular dichroic spectra analysis

Structure (SMILES)	EC50 [1]	Activity [2]	Tm [3]
CC[C@H](C)[C@H](NC(=O)[C@H](CC(C)C)NC(=O)[C@H](CCC(=O)O)NC(=O)[C@H](CCC(=O)O)NC(=O)[C@@H](NC(=O)[C@H](CC(C)C)NC(=O)[C@H](CO)NC(=O)[C@@H](NC(=O)[C@H](Cc1ccc(O)cc1)NC(C)=O)[C@@H](C)O)[C@@H](C)CC)C(=O)N[C@@H](CCCCN)C(=O)N[C@@H](CCCCN)C(=O)N[C@@H](CO)C(=O)N[C@@H](CCC(=O)O)C(=O)N[C@@H](CCC(=O)O)C(=O)N[C@@H](Cc1cnc[nH]1)C(=O)N[C@@H](CCC(N)=O)C(=O)N[C@@H](CCCCN)C(=O)N[C@@H](CCCCN)C(=O)N[C@@H](CC(N)=O)C(=O)N[C@@H](CCC(=O)O)C(=O)N[C@@H](CCC(=O)O)C(=O)N[C@@H](CCC(=O)O)C(=O)N[C@@H](CC(C)C)C(=O)N[C@@H](CCCCN)C(=O)N[C@@H](CCCCN)C(=O)N[C@@H](CC(C)C)C(=O)N[C@@H](CCC(=O)O)C(=O)N[C@@H](CCC(=O)O)C(=O)N[C@@H](Cc1c[nH]c2ccccc12)C(=O)N[C@@H](C)C(=O)N[C@@H](CCCCN)C(=O)N[C@@H](CCCCN)C(=O)N[C@@H](Cc1c[nH]c2ccccc12)C(=O)N[C@@H](CC(N)=O)C(=O)N[C@@H](Cc1c[nH]c2ccccc12)C(=O)N[C@@H](Cc1ccccc1)C(N)=O (Ac-YTSLIEELIKKSEEHQKKNEEELKKLEEWAKKWNWF-NH2)	3 nM	3.7%	68.4 °C
CC[C@H](C)[C@H](NC(=O)[C@H](CC(C)C)NC(=O)[C@H](CCC(=O)O)NC(=O)[C@H](CCC(=O)O)NC(=O)[C@@H](NC(=O)[C@H](CC(C)C)NC(=O)[C@H](CO)NC(=O)[C@@H](NC(=O)[C@H](Cc1ccc(O)cc1)NC(C)=O)[C@@H](C)O)[C@@H](C)CC)C(=O)N[C@@H](CCCCN)C(=O)N[C@@H](CCCCN)C(=O)N[C@@H](CO)C(=O)N[C@@H](CCC(=O)O)C(=O)N[C@@H](CCC(=O)O)C(=O)N[C@H](C(=O)N[C@@H](CCC(N)=O)C(=O)N[C@@H](CCCCN)C(=O)N[C@@H](CCCCN)C(=O)N[C@@H](CC(N)=O)C(=O)N[C@@H](CCC(=O)O)C(=O)N[C@@H](CCC(=O)O)C(=O)N[C@@H](CCC(=O)O)C(=O)N[C@@H](CC(C)C)C(=O)N[C@@H](CCCCN)C(=O)N[C@@H](CCCCN)C(=O)N[C@@H](CC(C)C)C(=O)N[C@@H](CCC(=O)O)C(=O)N[C@@H](CCC(=O)O)C(=O)N[C@@H](Cc1c[nH]c2ccccc12)C(=O)N[C@@H](C)C(=O)N[C@@H](CCCCN)C(=O)N[C@@H](CCCCN)C(=O)N[C@@H](Cc1c[nH]c2ccccc12)C(=O)N[C@@H](CC(N)=O)C(=O)N[C@@H](Cc1c[nH]c2ccccc12)C(=O)N[C@@H](Cc1ccccc1)C(N)=O)[C@@H](C)O (Ac-YTSLIEELIKKSEETQKKNEEELKKLEEWAKKWNWF-NH2)	2.1 nM	6.9%	71.6 °C
CC[C@H](C)[C@H](NC(=O)[C@H](CC(C)C)NC(=O)[C@H](CCC(=O)O)NC(=O)[C@H](CCC(=O)O)NC(=O)[C@@H](NC(=O)[C@H](CC(C)C)NC(=O)[C@H](CO)NC(=O)[C@@H](NC(=O)[C@H](Cc1ccc(O)cc1)NC(C)=O)[C@@H](C)O)[C@@H](C)CC)C(=O)N[C@@H](CCCCN)C(=O)N[C@@H](CCCCN)C(=O)N[C@@H](CO)C(=O)N[C@@H](CCC(=O)O)C(=O)N[C@@H](CCC(=O)O)C(=O)N[C@@H](CCCCN)C(=O)N[C@@H](CCC(N)=O)C(=O)N[C@@H](CCCCN)C(=O)N[C@@H](CCCCN)C(=O)N[C@@H](CC(N)=O)C(=O)N[C@@H](CCC(=O)O)C(=O)N[C@@H](CCC(=O)O)C(=O)N[C@@H](CCC(=O)O)C(=O)N[C@@H](CC(C)C)C(=O)N[C@@H](CCCCN)C(=O)N[C@@H](CCCCN)C(=O)N[C@@H](CC(C)C)C(=O)N[C@@H](CCC(=O)O)C(=O)N[C@@H](CCC(=O)O)C(=O)N[C@@H](Cc1c[nH]c2ccccc12)C(=O)N[C@@H](C)C(=O)N[C@@H](CCCCN)C(=O)N[C@@H](CCCCN)C(=O)N[C@@H](Cc1c[nH]c2ccccc12)C(=O)N[C@@H](CC(N)=O)C(=O)N[C@@H](Cc1c[nH]c2ccccc12)C(=O)N[C@@H](Cc1ccccc1)C(N)=O (Ac-YTSLIEELIKKSEEKQKKNEEELKKLEEWAKKWNWF-NH2)	3.8 nM	4.8%	65.3 °C
CC[C@H](C)[C@H](NC(=O)[C@H](CC(C)C)NC(=O)[C@H](CCC(=O)O)NC(=O)[C@H](CCC(=O)O)NC(=O)[C@@H](NC(=O)[C@H](CC(C)C)NC(=O)[C@H](CO)NC(=O)[C@@H](NC(=O)[C@H](Cc1ccc(O)cc1)NC(C)=O)[C@@H](C)O)[C@@H](C)CC)C(=O)N[C@@H](CCCCN)C(=O)N[C@@H](CCCCN)C(=O)N[C@@H](CO)C(=O)N[C@@H](CCC(=O)O)C(=O)N[C@@H](CCC(=O)O)C(=O)N[C@@H](CO)C(=O)N[C@@H](CCC(N)=O)C(=O)N[C@@H](CCCCN)C(=O)N[C@@H](CCCCN)C(=O)N[C@@H](CC(N)=O)C(=O)N[C@@H](CCC(=O)O)C(=O)N[C@@H](CCC(=O)O)C(=O)N[C@@H](CCC(=O)O)C(=O)N[C@@H](CC(C)C)C(=O)N[C@@H](CCCCN)C(=O)N[C@@H](CCCCN)C(=O)N[C@@H](CC(C)C)C(=O)N[C@@H](CCC(=O)O)C(=O)N[C@@H](CCC(=O)O)C(=O)N[C@@H](Cc1c[nH]c2ccccc12)C(=O)N[C@@H](C)C(=O)N[C@@H](CCCCN)C(=O)N[C@@H](CCCCN)C(=O)N[C@@H](Cc1c[nH]c2ccccc12)C(=O)N[C@@H](CC(N)=O)C(=O)N[C@@H](Cc1c[nH]c2ccccc12)C(=O)N[C@@H](Cc1ccccc1)C(N)=O (Ac-YTSLIEELIKKSEESQKKNEEELKKLEEWAKKWNWF-NH2)	4.6 nM	3.2%	66.7 °C
CC[C@H](C)[C@H](NC(=O)[C@H](CC(C)C)NC(=O)[C@H](CCC(=O)O)NC(=O)[C@H](CCC(=O)O)NC(=O)[C@@H](NC(=O)[C@H](CC(C)C)NC(=O)[C@H](CO)NC(=O)[C@@H](NC(=O)[C@H](Cc1ccc(O)cc1)NC(C)=O)[C@@H](C)O)[C@@H](C)CC)C(=O)N[C@@H](CCCCN)C(=O)N[C@@H](CCCCN)C(=O)N[C@@H](CO)C(=O)N[C@@H](CCC(=O)O)C(=O)N[C@@H](CCC(=O)O)C(=O)N[C@@H](C)C(=O)N[C@@H](CCC(N)=O)C(=O)N[C@@H](CCCCN)C(=O)N[C@@H](CCCCN)C(=O)N[C@@H](CC(N)=O)C(=O)N[C@@H](CCC(=O)O)C(=O)N[C@@H](CCC(=O)O)C(=O)N[C@@H](CCC(=O)O)C(=O)N[C@@H](CC(C)C)C(=O)N[C@@H](CCCCN)C(=O)N[C@@H](CCCCN)C(=O)N[C@@H](CC(C)C)C(=O)N[C@@H](CCC(=O)O)C(=O)N[C@@H](CCC(=O)O)C(=O)N[C@@H](Cc1c[nH]c2ccccc12)C(=O)N[C@@H](C)C(=O)N[C@@H](CCCCN)C(=O)N[C@@H](CCCCN)C(=O)N[C@@H](Cc1c[nH]c2ccccc12)C(=O)N[C@@H](CC(N)=O)C(=O)N[C@@H](Cc1c[nH]c2ccccc12)C(=O)N[C@@H](Cc1ccccc1)C(N)=O (Ac-YTSLIEELIKKSEEAQKKNEEELKKLEEWAKKWNWF-NH2)	2.7 nM	5.6%	70.4 °C
CC[C@H](C)[C@H](NC(=O)[C@H](CC(C)C)NC(=O)[C@H](CCC(=O)O)NC(=O)[C@H](CCC(=O)O)NC(=O)[C@@H](NC(=O)[C@H](CC(C)C)NC(=O)[C@H](CO)NC(=O)[C@@H](NC(=O)[C@H](Cc1ccc(O)cc1)NC(C)=O)[C@@H](C)O)[C@@H](C)CC)C(=O)N[C@@H](CCCCN)C(=O)N[C@@H](CCCCN)C(=O)N[C@@H](Cc1ccccc1)C(=O)N[C@@H](CCC(=O)O)C(=O)N[C@@H](CCC(=O)O)C(=O)N[C@@H](CCC(N)=O)C(=O)N[C@@H](CCC(N)=O)C(=O)N[C@@H](CCCCN)C(=O)N[C@@H](CCCCN)C(=O)N[C@@H](CC(N)=O)C(=O)N[C@@H](CCC(=O)O)C(=O)N[C@@H](CCC(=O)O)C(=O)N[C@@H](CCC(=O)O)C(=O)N[C@@H](CC(C)C)C(=O)N[C@@H](CCCCN)C(=O)N[C@@H](CCCCN)C(=O)N[C@@H](CC(C)C)C(=O)N[C@@H](CCC(=O)O)C(=O)N[C@@H](CCC(=O)O)C(=O)N[C@@H](Cc1c[nH]c2ccccc12)C(=O)N[C@@H](C)C(=O)N[C@@H](CCCCN)C(=O)N[C@@H](CCCCN)C(=O)N[C@@H](Cc1c[nH]c2ccccc12)C(=O)N[C@@H](CC(N)=O)C(=O)N[C@@H](Cc1c[nH]c2ccccc12)C(=O)N[C@@H](Cc1ccccc1)C(N)=O (Ac-YTSLIEELIKKFEEQQKKNEEELKKLEEWAKKWNWF-NH2)	2.8 nM	5.8%	64.6 °C
CC[C@H](C)[C@H](NC(=O)[C@H](CC(C)C)NC(=O)[C@H](CCC(=O)O)NC(=O)[C@H](CCC(=O)O)NC(=O)[C@@H](NC(=O)[C@H](CC(C)C)NC(=O)[C@H](CO)NC(=O)[C@@H](NC(=O)[C@H](Cc1ccc(O)cc1)NC(C)=O)[C@@H](C)O)[C@@H](C)CC)C(=O)N[C@@H](CCCCN)C(=O)N[C@@H](CCCCN)C(=O)N[C@H](C(=O)N[C@@H](CCC(=O)O)C(=O)N[C@@H](CCC(=O)O)C(=O)N[C@@H](CCC(N)=O)C(=O)N[C@@H](CCC(N)=O)C(=O)N[C@@H](CCCCN)C(=O)N[C@@H](CCCCN)C(=O)N[C@@H](CC(N)=O)C(=O)N[C@@H](CCC(=O)O)C(=O)N[C@@H](CCC(=O)O)C(=O)N[C@@H](CCC(=O)O)C(=O)N[C@@H](CC(C)C)C(=O)N[C@@H](CCCCN)C(=O)N[C@@H](CCCCN)C(=O)N[C@@H](CC(C)C)C(=O)N[C@@H](CCC(=O)O)C(=O)N[C@@H](CCC(=O)O)C(=O)N[C@@H](Cc1c[nH]c2ccccc12)C(=O)N[C@@H](C)C(=O)N[C@@H](CCCCN)C(=O)N[C@@H](CCCCN)C(=O)N[C@@H](Cc1c[nH]c2ccccc12)C(=O)N[C@@H](CC(N)=O)C(=O)N[C@@H](Cc1c[nH]c2ccccc12)C(=O)N[C@@H](Cc1ccccc1)C(N)=O)C(C)C (Ac-YTSLIEELIKKVEEQQKKNEEELKKLEEWAKKWNWF-NH2)	0.3 nM	9.4%	76 °C
